Data on 4 molecules can be found in patent US12138320B2, “Composition and methods for tumor imaging and treatment” (The University of Chicago, priority 2020, dated 2024).

The structures appear in SMILES notation. Bounds are passed on as bounds.

The test system of experiment [1] is other detected serine hydrolase targets. As to the kind of experiment: Family-wide gel-based profiling of serine hydrolases in MDA-MB231 and PC3 cells (selectivity). It is filed as cell-based, human. The settings on record: live cells. Here is the method:
Proteome Preparation: Human PC3 and MDA-MB231 cells were grown in Roswell Park Memorial Institute (RPMI) medium and Dulbecco's Modified Eagle Medium (DMEM), respectively, supplemented with 10% fetal bovine serum (FBS) and 2 mM L-glutamine, and cultured in a humidified 5% CO2 incubator at 37° C. Cells were washed twice with phosphate buffered saline (PBS, pH 7.5), collected by scraping, resuspended in 0.2 ml PBS, sonicated, and fractionated via centrifugation (100,000×g, 45 min) into a pellet (containing membrane proteins) and supernatant (containing soluble proteins). […] Protein concentrations were determined using a Bradford protein assay kit (Bio-Rad, Hercules, California, United States of America)). […]
Gel-based Activity Profiling: Cell lysates were treated with 1 μM fluorophosphonate-rhodamine (FP-rho) for 30 min at room temperature (50 μL total reaction volume). Reactions were quenched with one volume of standard 4× sodium dodecyl sulfate/polyacrylamide gel electrophoresis (SDS/PAGE) reducing sample buffer, resolved on 10% acrylamide SDS/PAGE gels, and visualized in-gel with a fluorescence scanner sold under the tradename CHEMIDOC™ MP (Bio-Rad, Hercules, California, United States of America). Densitometric quantification of band intensities were used to calculate the percent inhibition via JW199. […]

In experiment [2] the target is T1, NCEH1 (Homo sapiens, UniProt Q6PIU2).
T1 construct: serine hydrolase activity in membrane proteome fractions of MDA-MB231 breast cancer cells treated with the indicated concentrations; endogenous in cells; host or cells: PC3 prostate cancer cells; MDA-MB231 breast cancer cells
T1 sequence (Q6PIU2 1-408): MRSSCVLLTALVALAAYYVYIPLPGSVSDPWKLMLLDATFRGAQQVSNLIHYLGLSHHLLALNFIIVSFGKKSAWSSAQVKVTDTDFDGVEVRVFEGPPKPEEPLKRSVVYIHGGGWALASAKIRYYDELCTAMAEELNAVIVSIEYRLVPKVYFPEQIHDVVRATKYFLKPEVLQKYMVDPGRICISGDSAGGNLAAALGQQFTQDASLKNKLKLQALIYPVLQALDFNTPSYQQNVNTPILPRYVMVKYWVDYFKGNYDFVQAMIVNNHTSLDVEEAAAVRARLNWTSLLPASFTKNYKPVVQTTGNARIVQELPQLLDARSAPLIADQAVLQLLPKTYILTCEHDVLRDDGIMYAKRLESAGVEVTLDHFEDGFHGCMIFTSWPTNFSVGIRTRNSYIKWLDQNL
As to the kind of experiment: Gel-based competitive ABPP (FP-Rho) of cancer cells treated in situ (live cells). It is filed as cell-based. The settings on record: for potency against NCEH1 compared to JW199: MDA-MB231 cells treated in situ, 0-25 μM (FIG. 5B). Here is the method: Proteome Preparation: Human PC3 and MDA-MB231 cells were grown in Roswell Park Memorial Institute (RPMI) medium and Dulbecco's Modified Eagle Medium (DMEM), respectively, supplemented with 10% fetal bovine serum (FBS) and 2 mM L-glutamine, and cultured in a humidified 5% CO2 incubator at 37° C. Cells were washed twice with phosphate buffered saline (PBS, pH 7.5), collected by scraping, resuspended in 0.2 ml PBS, sonicated, and fractionated via centrifugation (100,000×g, 45 min) into a pellet (containing membrane proteins) and supernatant (containing soluble proteins). For murine proteomes, mouse tissues were Dounce-homogenized on ice in cold PBS, followed by a low-speed spin (1,400×g, 5 min) to remove debris. After sonication, the membrane and soluble proteomes were fractionated as described above. All sample pellets were washed and resuspended in PBS via sonication. Protein concentrations were determined using a Bradford protein assay kit (Bio-Rad, Hercules, California, United States of America)). Samples were stored at −80° C. until use.
Cellular JW199 Treatments: JW199 was dissolved in dimethyl sulfoxide (DMSO) vehicle, which was diluted into media or buffer before addition to cells or proteomes, respectively. For in vitro proteome experiments, the final DMSO concentration was 4%. For live cell (in situ) treatments, 2×10^6 cells were seeded in 6 cm dishes (100% confluency) 24 hours prior to JW199 treatment in serum-free media. At the end of the experiment, cells were washed and collected, as described above, for gel-based activity profiling.
Gel-based Activity Profiling: Cell lysates were treated with 1 μM fluorophosphonate-rhodamine (FP-rho) for 30 min at room temperature (50 μL total reaction volume). Reactions were quenched with one volume of standard 4× sodium dodecyl sulfate/polyacrylamide gel electrophoresis (SDS/PAGE) reducing sample buffer, resolved on 10% acrylamide SDS/PAGE gels, and visualized in-gel with a fluorescence scanner sold under the tradename CHEMIDOC™ MP (Bio-Rad, Hercules, California, United States of America). Densitometric quantification of band intensities were used to calculate the percent inhibition via JW199. 50% inhibitory concentration (IC50) values were determined from dose-response curves constructed in GraphPad Prism software from three independent replicates for each inhibitor concentration. For competitive ABPP with JW576, tumor lysates were treated with 1 μM JW576 for 30 min at 37° C. (50 μL total reaction volume). Competitive ABPP was then conducted as described above. NCEH1 activity was calculated by densitometric quantification (ImageJ software; National Institutes of Health (NIH), Bethesda, Maryland, United States of America) of JW576-labeled band intensity (BODIPY fluorescence) from three independent replicates.

For experiment [3], the target named is T2, NCEH1 (Mus musculus, UniProt Q8BLF1).
T2 construct: For murine proteomes, mouse tissues were Dounce-homogenized on ice in cold PBS; from tissue; host or cells: athymic nude mice: heart, kidney, lung, liver, brain, spleen and other organs
T2 sequence (Q8BLF1 1-408): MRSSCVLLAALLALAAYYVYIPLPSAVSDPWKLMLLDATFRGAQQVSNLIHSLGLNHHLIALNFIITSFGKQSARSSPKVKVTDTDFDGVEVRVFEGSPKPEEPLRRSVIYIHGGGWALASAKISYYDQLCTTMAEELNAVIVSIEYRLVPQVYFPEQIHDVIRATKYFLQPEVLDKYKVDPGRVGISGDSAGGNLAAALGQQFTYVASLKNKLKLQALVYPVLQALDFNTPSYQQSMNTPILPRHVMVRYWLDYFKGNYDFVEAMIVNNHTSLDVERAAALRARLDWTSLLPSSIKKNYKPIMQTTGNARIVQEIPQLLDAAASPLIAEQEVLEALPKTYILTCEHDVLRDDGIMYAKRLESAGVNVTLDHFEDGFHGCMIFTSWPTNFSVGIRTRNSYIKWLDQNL
As to the kind of experiment: Gel-based competitive ABPP of murine tissue membrane proteomes after JW480 pre-treatment. The format is in vivo. The settings on record: JW480 80 mg/kg; brain, heart, kidney, lung, liver, spleen membrane proteomes. From the text: FIGS. 9A and 9B: Gel-based competitive activity-based protein profiling (ABPP) profiles of several murine membrane proteomes following treatment with fluorine-18-labeled 2-isopropylphenyl-(4-(2-fluoroethoxy)phenethyl)carbamate ([^18F]JW199) with and without 2-isopropylphenyl)-(2-(naphthalen-2-yl)ethyl)carbamate (JW480; 80 milligrams per kilogram (mg/kg)). FIG. 9A is a schematic drawing showing the chemical structure of JW480. FIG. 9B is a composite gel image of the ABPP profiles of the murine membrane proteomes from brain, heart, kidney, lung, liver and spleen following treatment with [^18F]JW199 with or without JW480.
Proteome Preparation: Human PC3 and MDA-MB231 cells were grown in Roswell Park Memorial Institute (RPMI) medium and Dulbecco's Modified Eagle Medium (DMEM), respectively, supplemented with 10% fetal bovine serum (FBS) and 2 mM L-glutamine, and cultured in a humidified 5% CO2 incubator at 37° C. […] Protein concentrations were determined using a Bradford protein assay kit (Bio-Rad, Hercules, California, United States of America)). […]
Gel-based Activity Profiling: Cell lysates were treated with 1 μM fluorophosphonate-rhodamine (FP-rho) for 30 min at room temperature (50 μL total reaction volume). […] Densitometric quantification of band intensities were used to calculate the percent inhibition via JW199. […]

Experiment [4] deals with T2, NCEH1. As to the kind of experiment: In vivo competition: oral JW480 pre-treatment, then i.v. [18F]JW199 and PET-CT. Here is the method: In vivo microPET/CT imaging: All imaging was performed by the Integrated Small Animal Imaging Research Resource (iSAIRR) at the University of Chicago (Chicago, Illinois, United States of America) on a β-Cube and X-Cube (Molecubes NV, Ghent, Belgium). Athymic nude mice (males and females, aged 6 to 8 weeks; HSD strain, Harlan-Envigo, Indianapolis, Indiana, United States of America) were anesthetized via inhalation with 1.5-2% isoflurane and injected with approximately 150 μCi (5.55 Megabecquerel (MBq)) of [^18F]JW199 in 150 μL of physiologic saline through the lateral tail vein, followed by awake incubation for 1 hour and 45 minutes. MicroCT images were acquired using the general purpose protocol, with energy of 50 KeV and a tube current of 100 μA. Respiration rate and body temperature of the animal were constantly monitored during the entire scanning period with the p-Cube and X-Cube onboard monitoring system. A 1 hr dynamic PET acquisition was started 2 hours after [^18F]JW199 injection. Dynamic reconstruction was performed for 6 frames of 10 minutes each using a three-dimensional (3D) OSEM algorithm with 400 μm isometric voxel size. For competition studies, mice were pretreated with either 80 mg/kg JW480 or vehicle (polyethylene glycol 300 (PEG300)) via oral gavage, followed 4 hours later by dosing with [^18F]JW199 and imaging as described. For the MDA-MB231 study, [^18F]JW199 injection was followed immediately by dynamic PET acquisition (90 min) and microCT scanning as detailed above. Dynamic PET image reconstruction included 9 frames of 10 minutes each.
Dynamic reconstruction was performed using a three-dimensional OSEM algorithm with 400 μm isometric voxel size. […] 3D regions of interest (ROIs) were drawn and standardized uptake values (SUVs) and percent injected dose per cubic centimeter of tissue (% ID/cc) were calculated for each ROI and time point. % ID/cc was calculated as a ratio of tissue radioactivity concentration (mCi/g) at time of scan to total injected activity (millicurie (mCi)) at time of scan.

For the molecule `CC(C)c1ccccc1OC(=O)NCCc1ccc(OCCF)cc1` [JW199, 2-isopropylphenyl-(4-(2-fluoroethoxy)phenethyl)carbamate], in experiment [1], the “selectivity over other detected serine hydrolase targets” value is > 1,000 fold. The “IC50 values, inhibition of NCEH1 in live cells” value at NCEH1 [2] (in situ, MDA-MB231 and PC3 cells) is “low nM range”.
Regarding `CC(C)c1ccccc1OC(=O)NCCc1ccc2ccccc2c1` [JW480, 2-isopropylphenyl-(2-(naphthalen-2-yl)ethyl)carbamate], the “inhibition of NCEH1 in tissues of pre-treated mice” value on NCEH1 [3] is “specific and significant inhibition”. Besides, the “effect of pre-treatment on radioactivity in urine and brain” value on NCEH1 [4] (JW480 80 mg/kg oral, 4 hours before tracer) is “slightly elevated radioactivity”. Besides, on NCEH1 [4] (JW480 80 mg/kg oral, 4 hours before tracer, 3 hours post injection), the “effect of pre-treatment on [18F]JW199 radiotracer signal in heart, lung and kidney” value is “significantly diminished radiotracer signal”. For the same molecule, the “[18F]JW199 accumulation in kidneys and heart of competitor-treated mouse (PET-CT images)” value at NCEH1 [4] (JW480 oral, then i.v. tracer) was “visibly decreased”.
On to `CC(C)c1ccccc1OC(=O)NCCc1ccc(OCCCF)cc1` [JW245, 2-isopropylphenyl-(4-(3-fluoropropoxy)phenethyl)carbamate], for which the “potency against NCEH1 compared to JW199” value on NCEH1 [2] is “less potent”.
Take `CC(C)c1ccccc1OC(=O)NCCNC(=O)c1ccc2cc(OCCF)ccc2c1` [JW291, 2-isopropylphenyl (2-(6-(2-fluoroethoxy)-2-naphthamido)ethyl)carbamate]: on NCEH1 [2], the “potency against NCEH1 compared to JW199” value was “less potent”.
